The results in this text go back to ChEMBL document CHEMBL5723584 (2023).

SMILES strings stand for the structures.

Test [1] deals with T1, Citron Rho-interacting kinase (Homo sapiens, UniProt O14578). Nature of the test: NanoLuc NanoBRET (CITKD).
Test [2] deals with T1, Citron Rho-interacting kinase. Nature of the test: NanoLuc NanoBRET (CIT).

T1 sequence (O14578 whole entry): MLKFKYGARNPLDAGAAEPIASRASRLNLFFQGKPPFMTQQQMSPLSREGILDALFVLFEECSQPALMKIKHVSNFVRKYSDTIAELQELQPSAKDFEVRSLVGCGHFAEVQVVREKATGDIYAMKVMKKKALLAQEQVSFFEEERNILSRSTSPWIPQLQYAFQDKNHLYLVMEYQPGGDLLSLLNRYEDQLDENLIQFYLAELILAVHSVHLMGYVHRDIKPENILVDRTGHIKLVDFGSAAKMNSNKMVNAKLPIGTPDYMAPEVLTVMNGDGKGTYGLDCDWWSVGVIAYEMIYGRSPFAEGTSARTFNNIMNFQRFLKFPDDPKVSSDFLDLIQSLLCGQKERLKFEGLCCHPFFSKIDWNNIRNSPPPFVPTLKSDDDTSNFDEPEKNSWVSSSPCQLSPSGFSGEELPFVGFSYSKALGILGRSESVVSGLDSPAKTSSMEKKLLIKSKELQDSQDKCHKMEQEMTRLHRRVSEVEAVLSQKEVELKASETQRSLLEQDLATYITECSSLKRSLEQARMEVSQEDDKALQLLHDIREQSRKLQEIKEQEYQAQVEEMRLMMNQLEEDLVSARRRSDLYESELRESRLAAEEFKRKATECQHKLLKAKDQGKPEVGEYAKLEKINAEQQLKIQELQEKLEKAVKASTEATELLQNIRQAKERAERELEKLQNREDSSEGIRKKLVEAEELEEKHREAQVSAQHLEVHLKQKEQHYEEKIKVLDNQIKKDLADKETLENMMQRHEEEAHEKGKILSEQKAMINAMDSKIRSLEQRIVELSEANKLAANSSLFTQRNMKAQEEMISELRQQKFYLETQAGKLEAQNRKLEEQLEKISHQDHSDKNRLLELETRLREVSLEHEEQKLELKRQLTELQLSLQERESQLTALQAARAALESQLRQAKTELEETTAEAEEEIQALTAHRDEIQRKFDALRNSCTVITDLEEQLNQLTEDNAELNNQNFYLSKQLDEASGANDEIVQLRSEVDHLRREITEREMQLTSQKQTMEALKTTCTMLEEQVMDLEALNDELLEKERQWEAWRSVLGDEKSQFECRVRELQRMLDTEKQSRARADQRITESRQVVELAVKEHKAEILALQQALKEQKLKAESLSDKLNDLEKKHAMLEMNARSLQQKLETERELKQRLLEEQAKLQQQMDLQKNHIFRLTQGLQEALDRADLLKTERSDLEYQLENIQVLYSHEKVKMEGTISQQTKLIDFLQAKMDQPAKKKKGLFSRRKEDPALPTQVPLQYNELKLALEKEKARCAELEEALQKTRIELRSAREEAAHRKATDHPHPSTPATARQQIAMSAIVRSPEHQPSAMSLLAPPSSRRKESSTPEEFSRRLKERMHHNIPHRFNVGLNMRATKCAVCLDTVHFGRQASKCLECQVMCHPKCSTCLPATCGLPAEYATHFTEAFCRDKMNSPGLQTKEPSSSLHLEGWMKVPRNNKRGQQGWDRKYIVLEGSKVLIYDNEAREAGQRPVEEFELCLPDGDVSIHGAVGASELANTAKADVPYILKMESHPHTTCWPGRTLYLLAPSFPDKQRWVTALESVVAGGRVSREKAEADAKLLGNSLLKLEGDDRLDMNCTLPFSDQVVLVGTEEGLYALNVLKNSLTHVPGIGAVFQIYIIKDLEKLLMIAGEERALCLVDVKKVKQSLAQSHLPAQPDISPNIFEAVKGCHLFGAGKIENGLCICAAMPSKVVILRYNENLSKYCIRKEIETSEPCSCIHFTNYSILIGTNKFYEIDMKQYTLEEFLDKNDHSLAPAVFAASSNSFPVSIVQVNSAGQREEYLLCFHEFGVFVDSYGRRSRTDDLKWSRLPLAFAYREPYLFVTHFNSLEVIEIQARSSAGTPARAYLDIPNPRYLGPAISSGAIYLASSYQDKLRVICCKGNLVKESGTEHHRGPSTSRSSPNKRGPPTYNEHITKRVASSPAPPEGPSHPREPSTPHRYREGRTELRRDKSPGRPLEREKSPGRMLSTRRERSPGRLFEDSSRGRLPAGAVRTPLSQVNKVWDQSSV

For `Cc1cc2c(-c3ccc(NC(=O)[C@H](N)CC(C)(C)C)cc3C)cncc2[nH]1`, the Kd entry in test [1] and in test [2] was “no binding” in each case.
